Experiments:
Format in all cases: biochemical
[1] = molecular target: T1, BlaMab (M. abscessus endogenous class A beta-lactamase) (Mycobacteroides abscessus, UniProt B1MCI3); assay: TLC turnover assay with recombinant BlaMab
T1 construct: gene MAB_2875; -30 residue N-terminal truncated protein, 6x-His tagged

[2] = molecular target: T1, BlaMab (M. abscessus endogenous class A beta-lactamase); assay: nitrocefin hydrolysis kinetics (Ki app, k2/Ki, koff) with recombinant BlaMab; TLC penicillin V assay
[3] = molecular target: T1, BlaMab (M. abscessus endogenous class A beta-lactamase); assay: spectrophotometric hydrolysis at […] nm, Michaelis-Menten (Km across […] relebactam)

T1 sequence (B1MCI3 entry or part of it): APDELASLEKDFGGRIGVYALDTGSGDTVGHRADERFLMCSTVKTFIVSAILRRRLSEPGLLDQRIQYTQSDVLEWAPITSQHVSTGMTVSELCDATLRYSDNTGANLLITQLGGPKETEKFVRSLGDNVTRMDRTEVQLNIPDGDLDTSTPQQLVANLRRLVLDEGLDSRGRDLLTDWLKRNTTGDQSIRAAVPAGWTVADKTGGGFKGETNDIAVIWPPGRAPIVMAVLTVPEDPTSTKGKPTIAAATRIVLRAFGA

CC1(C)S[C@@H]2[C@H](NC(=O)COc3ccccc3)C(=O)N2[C@H]1C(=O)O [PenV, penicillin V]
TLC turnover assay with recombinant BlaMab [1]: The hydrolysis of penicillin V to penicilloic acid by BlaMab resulted in a spot with reduced Rf value

O=C(NC1CCNCC1)[C@@H]1CC[C@@H]2CN1C(=O)N2OS(=O)(=O)O [REL, relebactam]
Ki [2]: 184 nM

O=C(Cc1cccs1)N[C@@H]1C(=O)N2C(C(=O)O)=C(/C=C/c3ccc([N+](=O)[O-])cc3[N+](=O)[O-])CS[C@H]12 [nitrocefin]
Km [3]: 69.43–16.96 µM

— article PMC6985242, “Effect of Amoxicillin in combination with Imipenem-Relebactam against Mycobacterium abscessus” (Scientific Reports, 2020)
